Source: patent publication US6043037A, “Rapid method for measuring clastogenic fingerprints using fluorescence in situ hybridization” (The Regents of the University of California, priority 1997, dated 2000)

Legend:
[1] = system: human lymphocytes; assay: S ratio (apparently simple translocations / incompletes) measured by FISH after in vitro exposure to clastogenic agents; type: cell-based
Procedure: Identification and scoring of chromosome exchange aberrations was performed using FISH as described in Lucas, et al., Rapid translocation frequency analysis in humans decades after exposure to ionizing radiationi, Int'l. J. Radiat. Biol., 62:53-63 (1992). The scoring criteria used (apparently […] exchange-type painting pattern) was equivalent to those described in Simpson, et al. Estimating the true frequency of X-ray-induced complex chromosome exchanges using fluorescence in situ hybridization, Int'l. J. Radiat. Biol., 67:37-45 (1995). Only apparently simple translocations (ASTs) and dicentrics (ASD's) were used to calculate F ratios because equality for translocations and dicentrics has been shown only for AST's and ASD's mathematically (Lucas, et al., Int'l. J. Radiat. Biol., 69:145-153 (1996) and experimentally (Simpson, et al., Int'l. J. Radiat. Biol., 67:37-45 (1995); Kovacs et al., Radiation Research, 137:34-43. (1994). The translocation frequency measured by FISH was scaled to full-genome equivalents using the formula in Lucas, et al., Int'l. J. Radiat. Biol., 62:53-63 (1992), herein by reference. In brief, the formula relates the translocation frequency measured by FISH, Fp, to the genomic translocation frequencies, FG, through the fraction of the genome covered by the probes, fp, as follows:
Cells were irradiated with ^60 Co and ^137 Cs gamma rays in order to produce aberrations and detect the frequency of their occurance. Irradiation of cells with ^60 Co and ^137 Cs gamma rays has been described elsewhere. Lucas, J. N., et al., Rapid determination of human chromosome translocation frequency using a pair of chromosome-specific DNA probes, Int'l. J. Radiat. Biol., 56:35-44 (1989). […]
Except where noted, all data analyzed were obtained using FISH. […] The chromosome exchange aberrations scored here were apparently simple (AS) exchange-type painting patterns. Simpson, P. J. and Savage, J. R. K., Estimating the true frequency of X-ray-induced complex chromosome exchanges using fluorescence in situ hybridization, Int'l. […]

[2] = system: human lymphocytes; assay: S ratio measured by FISH in lymphocytes of humans exposed in vivo (benzene workers, tritium worker)
From the text: Except where noted, all data analyzed were obtained using FISH. Identification and scoring of chromosome exchange aberrations using chromosome painting to generate additional data employed the methods of J. M. Lucas, et al., Rapid translocation frequency analysis in humans decades after exposure to ionizing radiation, Int'l. […] The chromosome exchange aberrations scored here were apparently simple (AS) exchange-type painting patterns.
The pattern resembles that of translocations. An incomplete apparently simple (AS) translocation pattern resembles that of an incomplete reciprocal translocation where the solid painted fragment contains one centromere. These aberrations are those translocations where reciprocity of the exchange event is not registered, either because the exchanged is actually incomplete, or because one of the exchanges segments involves the extreme, unpainted, terminal part of the arm.
Incomplete apparently simple translocations were recognized as bicolor chromosome derivatives, where the centromere resides on the unpainted segment.
Where possible, data were combined, and in some cases, additional scoring was performed to improve statistics. The blind scoring of coded photomicrographs was performed by technicians unfamiliar with the project goal. Photomicrographs were either reanalyzed from previous studies, or new photomicrographs were analyzed for this study.
The significance estimate for testing the equality of S-ratios between any two populations compared here was calculated by a likelihood ratio test using a Generalized Linear Model (GLM) on two nested hypotheses. The four outcomes were assumed to be distributed as independent Poisson random variates with a logarithmic link function. The null hypothesis included terms for offset, population and outcome type. The alternative included an additional interaction term. […]

[3] = in vitro exposure, 1800 cells (bleomycin), 5,809 cells (tritium, 0.6 Gy)
[4] = 20 benzene workers with history of benzene poisoning, 18,583 cells

| Compound | ASTs (apparently simple translocations) [1, 3] | Inc (incomplete apparently simple translocations) [1, 3] | S ratio compared with low-LET radiation ([1]; in vitro, vs low-LET radiation) | ASTs (apparently simple / complete translocations) [2, 4] | Inc (incomplete apparently simple translocations) [2, 4] | S ratio compared with low-LET radiation ([2]; benzene workers, vs low-LET radiation) |
| --- | --- | --- | --- | --- | --- | --- |
| bleomycin | 49 | 21 | significantly lower than those measured for low-LET radiation | – | – | – |
| c1ccccc1 [Benzene, benzene] | – | – | – | 50 | 25 | significantly lower than those measured for low-LET radiation |
